Test system: EVPOME tissue-engineered constructs (primary human oral keratinocytes)
Assay: Quantitative histology scoring (H&E) of rapamycin-treated tissue-engineered constructs
Assay type: cell-based
Excerpt: A section was sliced across the construct, near the edge, fixed in 10% phosphate buffered formalin, and embedded in paraffin for hematoxylin and eosin (H&E) histology and immunohistochemistry (IHC). All the engineered tissues were sectioned for histological assessment and some for IHC imaging. Some engineered tissues were randomly selected for punch biopsies for WST-1 assay. The remaining intact constructs were non-invasively assessed with label-free optical imaging. For each construct, three sites were randomly selected for optical imaging. A tissue-engineered construct consists of three layers: keratin, living cellular, and dermal equivalent layer. Thus, for each site, one to two optical images were measured at lower and upper depths for the proliferating basal layer and the differentiating cellular layer respectively.
10 batches tissue-engineered constructs manufactured with cells from 10 independent patients were studied: 5 batches for the rapamycin experiment and 5 batches for the thermal-stress experiment. For the rapamycin experiment, 2 nM rapamycin was added in the medium at the cell culture stage for five days prior to tissue-stage culture and/or the tissue culture stage. Therefore, a total of four experimental conditions were created in the rapamycin experiment: • 1. Control+control: no rapamycin was added to the cultures during the two stages. • 2. Control+rapa: no rapamycin was added to the first cell culture stage medium; rapamycin was added to the second tissue culture stage medium. • 3. Rapa+control: rapamycin was added to the first cell culture stage medium; no rapamycin was added to the second tissue culture stage medium. • 4. Rapa+rapa: rapamycin was added to the medium used in both the culture stages.
All H&E histology slides were assessed by a panel of three blinded expert readers. Classification criteria were previously developed and detailed, where a viability score of 1 (least viable), 2, 3, 4, or 5 (most viable) was used. The classification criteria included the basal cell layer health, the construct cellular organization, and the keratin layer structural quality. The readers individually assigned a score to each EVPOME histology slide, while blinded to the construct condition and to the other readers' scores.
Quantitative histology scoring was performed to assess tissue morphology. Two groups of cultured cells were categorized: well-growing culture and poorly-growing culture. The well-growing and the poorly-growing cultures were defined by their control+control histology scores. A control+control score >3 is defined as well-growing. A control+control score <=3 is defined as poorly growing.

CO[C@H]1C[C@@H]2CC[C@@H](C)[C@@](O)(O2)C(=O)C(=O)N2CCCC[C@H]2C(=O)O[C@H]([C@H](C)C[C@@H]2CC[C@@H](O)[C@H](OC)C2)CC(=O)[C@H](C)/C=C(\C)[C@@H](O)[C@@H](OC)C(=O)[C@H](C)C[C@H](C)/C=C/C=C/C=C/1C [Rapamycin]
histology score (control+rapa construct (2 nM rapamycin in tissue culture stage only), poorly-growing culture, score 1 to 5): <= 3
histology score (rapa+control construct (2 nM rapamycin in cell culture stage only), poorly-growing culture, score 1 (least viable) to 5 (most viable)): 4.7
histology score (rapa+rapa construct (2 nM rapamycin in both culture stages), poorly-growing culture, score 1 to 5): <= 3
histology score (well-growing culture, all four constructs incl. rapa+control, control+rapa, rapa+rapa, score 1 to 5): > 3

From US10281451B2, “Method of determining the viability of at least one cell” (The Regents of the University of Michigan, priority 2012, dated 2019)
